# Legend:
# [1] = system: non-transfected CHO cells; test: Ligand-receptor binding assay, non-transfected CHO cells
# Procedure: The assay was performed as a modification of the one previously described. The binding buffer contained Dulbecco’s Modified Eagle’s Medium (DMEM), 50 mM HEPES, 2 mM glutamine, 11.5 mM glucose, 1% bovine serum albumin (BSA) and 5 mM sodium pyruvate. The binding reactions took place in 1.5 ml eppendorf tubes containing 70–100 pM of [^125I]Tyr^11-SST-14 from PerkinElmer (Boston, MA 02118–2512), 1–1.5 × 10^5 cells and the tested SST analogs (10^−5 to 10^−13 M) for a total volume of 300 μl. These were incubated at room temperature for 50–60 minutes and centrifuged for 1–2 min at 9,000 g. The cell pellets were washed twice with phosphate-buffered saline (PBS) and counted for total radioactivity in a Titertek gamma counter (Huntsville, AL). The analyses were done using GraphPad Prism 4.0 (San Diego, […]). For further internalization, cells were then re-suspended and incubated in HBSS (pH4, acetic acid) on ice for 10 min, washed with cold PBS and then re-counted for radioactivity. Due to the radioactivity of membrane-bound receptors being released by the acid wash, the remaining radioactivity represents the internalized peptide.
# [2] = system: pancreatic cancer CFPAC-1 cells; test: Cell proliferation assay (MTT), CFPAC-1; type: cell-based, human; settings: table: mean ± SEM (n)
# Procedure: (§1) The CHO-R1 and CHO-R2 cell lines, which were transfected with rat SSTR1 and SSTR2, respectively, were a kind gift from Dr. Agnes Schonbrunn (University of Texas—Houston, Houston, TX). Cells were cultured in F-12 medium containing 10% fetal calf serum. All other human tumor cell lines, including neuroblastoma IMR32, leukemia MOLT-4, pancreatic cancer CFPAC-1, prostate cancer PC-3 were purchased from ATCC (American Type Culture Collection, Manassas, VA). Human pancreatic carcinoid BON cells were a kind gift from Dr. Courtney Townsend (University of Texas—Galveston) and cultured as described previously.
# (§2) The kits for the cell proliferation assay (MTT Assay) were purchased from Promega (Madison, WI) and the protocol was the same as described previously.
# [3] = system: prostate cancer PC-3 cells; test: Cell proliferation assay (MTT), PC-3; type: cell-based, human; settings: table: mean ± SEM (n)
# Procedure: as §1, §2
# [4] = system: neuroblastoma IMR32 cells; test: Cell proliferation assay (MTT), IMR32; type: cell-based, human; settings: table: mean ± SEM (n)
# Procedure: as §1, §2
# [5] = system: pancreatic carcinoid BON cells; test: Cell proliferation assay (MTT), BON; type: cell-based, human; settings: table: mean ± SEM (n)
# Procedure: as §1, §2
# [6] = system: pancreatic carcinoid BON tumors; test: Tumor growth, continuous drug-releasing pellets, BON tumors; type: in vivo, nude mice; settings: 5 mg/pellet
# Procedure: The cytotoxic CPT-SST conjugate JF-10-81 was synthesized as described previously. Continuous drug-releasing pellets containing JF-10-81 (5 mg/pellet) formulated to release drug for 60 days, were made by Innovative Research of America (Sarasota, FL).
# Male nude mice, 5–7 weeks of age upon arrival, were purchased from the National Cancer Institute (NCI, Frederik, MD). The animal study was approved by the Tulane University Health Sciences Center Institutional Animal Care and Use Committee (IACUC).
# The tumor tissue segments, grown from CFPAC-1, IMR32, MOLT-4 and BON cells injected into nude mice, were s.c. implanted into the flanks of nude mice as described previously. All the tumors were passaged from mouse to mouse. Tumor-carrying mice then were implanted with continuous drug-releasing pellets containing 5 mg of JF-10-81.
# For treatments of pancreatic cancer CFPAC-1 tumors, mice were separated into 2 groups. Each mouse in the control group was implanted with a placebo pellet. Each mouse in the test group was implanted with a pellet containing JF-10-81 (5 mg/pellet) with a drug-release time of 60 days. Tumor volumes were measured and bodyweights were taken once a week. The treatment for all other tumors (BON, IMR32 and MOLT-4) was the same as above.
# [7] = system: leukemia MOLT-4 cells; test: Cell proliferation assay (MTT), MOLT-4; type: cell-based, human; settings: table: mean ± SEM (n)
# Procedure: as §1, §2
SMILES,affinity to the non-transfected CHO cells [1],"EC50 ([2]; Homo sapiens, CFPAC-1, MTT assay) [nM]",EC50 ([2]; MTT assay) [nM],"EC50 ([3]; Homo sapiens, PC-3, MTT assay) [nM]",EC50 ([3]; MTT assay) [nM],"EC50 ([4]; Homo sapiens, IMR-32, MTT assay) [nM]",EC50 ([4]; MTT assay) [nM],EC50 ([5]; Homo sapiens) [nM],EC50 [5] [nM],"Inhibition (%) ([6]; 42 days, vs placebo)",percentage increase of tumor volumes ([6]; vs initial) [%],"EC50 ([7]; Homo sapiens, MOLT-4, MTT assay) [nM]",EC50 ([7]; MTT assay) [nM]
C[C@H](N)C(=O)NCC(=O)N[C@H]1CSSC[C@@H](C(=O)O)NC(=O)[C@H](CO)NC(=O)[C@H]([C@@H](C)O)NC(=O)[C@H](Cc2ccccc2)NC(=O)[C@H]([C@@H](C)O)NC(=O)[C@H](CCCCN)NC(=O)[C@H](Cc2c[nH]c3ccccc23)NC(=O)[C@H](Cc2ccccc2)NC(=O)[C@H](Cc2ccccc2)NC(=O)[C@H](CC(N)=O)NC(=O)[C@H](CCCCN)NC1=O [SST-14],no affinity,–,–,–,–,–,–,–,–,–,–,–,–
"CC[C@@]1(O)C(=O)OCc2c1cc1n(c2=O)Cc2cc3ccccc3nc2-1 [CPT, camptothecin]",–,25.5,25.5 ± 5.6,20.8,20.8 ± 2.82,2.8,2.82 ± 0.14,171,171 ± 14.6,42,278,2,1.96 ± 0.32

# Reference: paper PMC3161630, “Targeted Chemotherapy Using a Cytotoxic Somatostatin Conjugate to Inhibit Tumor Growth and Metastasis in Nude Mice” (Clinical Medicine. Oncology, 2008)
